Assay results: article PMC10976095 (Vaccines, 2024)
pIC50: −log10 of the molar value. Where a SMILES comes first, the peptide text is derived from it.

Key:
HLA-B*07:02 = HLA-B*07:02 (Homo sapiens, UniProt P01889); experiment: biochemical; type: binding
HLA-B*08:01 = HLA-B*08:01 (Homo sapiens, UniProt P01889, A93T/A95T/D138N/E176V/E187T/K202T/Q94N/R180D/S35A/V36M/Y33D/Y91F); experiment: biochemical; type: binding
HLA-B*15:01 = HLA-B*15:01 (Homo sapiens, UniProt P01889, A329T/A93T/A95T/C349S/D201E/D98Y/E187L/E204Q/E69M/E70A/K202T/N87E/Q94N/R155S/R180W/S121R/S35A/S48A/V306I/V36M/Y140S/Y91S); experiment: biochemical; type: binding
HLA-A*32:01 = HLA-A*32:01 (Homo sapiens, UniProt P04439, A270S/D101S/D185E/E176V/E277Q/F133L/G103R/G107R/G231S/H175R/I121M/I218V/I322F/K168Q/L105A/L300P/L318F/M331R/P208A/P217A/Q94H/R106L/R138Q/S129P/T104I/T323A/T345S/V100E/V321M/V358M); experiment: biochemical; type: binding
HLA-A*30:02 = HLA-A*30:02 (Homo sapiens, UniProt P04439, D101N/D140H/D185E/E176R/F33S/G80R/H175R/K168Q/Q94H/R138E/R41S/V100E); experiment: biochemical; type: binding
HLA-A*24:02 = HLA-A*24:02 (Homo sapiens, UniProt P04439, D101N/D140Y/D185E/E176V/E190D/F33S/G103R/G107R/I119L/I121M/I306V/K335N/L105A/L180Q/L300P/N151K/N90K/Q86E/Q94H/R106L/R138H/R89G/T104I/T345S/V100E/W191G/Y123F); experiment: biochemical; type: binding
HLA-A*23:01 = HLA-A*23:01 (Homo sapiens, UniProt P04439, D101N/D140Y/D185E/E176V/E190D/F33S/G103R/G107R/H175R/I119L/I121M/I306V/K168Q/K335N/L105A/L300P/N151K/N90K/P307H/Q86E/Q94H/R106L/R138H/R89G/T104I/T345S/V100E/W191G/Y123F); experiment: biochemical; type: binding
HLA-A*30:01 = HLA-A*30:01 (Homo sapiens, UniProt P04439, D140H/D185E/E176W/F33S/G80R/H175R/K168Q/R138E/R41S); experiment: biochemical; type: binding
HLA-B*27:05 = HLA-B*27:05 (Homo sapiens, UniProt P01889, D138H/D201E/E176V/E204Q/G107R/H137Y/K202T/N104T/N87E/Q56L/Q94K/R106L/R155S/R180L/S101D/S121N/S48T/Y140D/Y33H/Y91C); experiment: biochemical; type: binding
HLA-A*03:01 = HLA-A*03:01 (Homo sapiens, UniProt P04439); experiment: biochemical; type: binding
HLA-A*02:01 = HLA-A*02:01 (Homo sapiens, UniProt P04439, D140Y/D185E/D98H/E176V/E277Q/G131W/G231S/I119V/I121R/I166T/I218V/L300P/L318F/N151K/N90K/P208A/P217A/Q86G/Q94H/R138H/R169H/T345S); experiment: biochemical; type: binding
HLA-A*02:03 = HLA-A*02:03 (Homo sapiens, UniProt P04439, A173T/D140Y/D185E/D98H/E277Q/G131W/G231S/I119V/I121R/I166T/I218V/L180W/L300P/L318F/N151K/N90K/P208A/P217A/Q86G/Q94H/R138H/R169H/T345S); experiment: biochemical; type: binding
HLA-A*02:06 = HLA-A*02:06 (Homo sapiens, UniProt P04439, D140Y/D185E/D98H/E176V/E277Q/F33Y/G131W/G231S/I119V/I121R/I166T/I218V/L300P/L318F/N151K/N90K/P208A/P217A/Q86G/Q94H/R138H/R169H/T345S); experiment: biochemical; type: binding
HLA-B*40:01 = HLA-B*40:01 (Homo sapiens, UniProt P01889, A65T/A93T/A95T/D138N/D98Y/E176V/E69K/N87E/Q56L/Q94N/R180L/S121R/S35A/S48T/T167S/V36M/W171L/Y33H/Y91S); experiment: biochemical; type: binding
HLA-B*44:02 = HLA-B*44:02 (Homo sapiens, UniProt P01889, A223V/A65T/A93T/A95T/D201E/D98Y/E176V/E187L/E204Q/E69K/G107R/H137Y/K202T/L105A/L119I/N104T/N87E/Q56L/Q94N/R106L/R155S/R180D/S101N/S121R/S35A/S48T/T118I/V36M/W191S/Y140D/Y91S); experiment: biochemical; type: binding
[1] = tested on: Mafa-A63:02 MHC class I molecules; type: binding, Macaca fascicularis
HLA-A*68:02 = HLA-A*68:02 (Homo sapiens, UniProt P04439, A269V/D140Y/D185E/E176V/E277Q/E87N/F33Y/G231S/I121R/I166T/I218V/L180W/L300P/L318F/N151K/P208A/P217A/Q86R/R138H/R169H/S129P/T345S/V36M); experiment: biochemical; type: binding

CC(C)C[C@H](NC(=O)[C@H](CC(N)=O)NC(=O)[C@H](CC(C)C)NC(=O)[C@@H](NC(=O)[C@H](CCCNC(=N)N)NC(=O)[C@H](C)NC(=O)[C@H](Cc1ccccc1)NC(=O)[C@@H]1CCCN1C(=O)[C@H](C)N)C(C)C)C(=O)O [AL9] (H-APFARVLNL-OH)
pIC50 (HLA-B*07:02): 9.68
pIC50 (HLA-B*08:01): 7.17

CC(C)[C@H](NC(=O)[C@H](CCC(=O)O)NC(=O)[C@H](CC(N)=O)NC(=O)[C@H](CCCCN)NC(=O)[C@@H](NC(=O)[C@@H](N)CCCCN)C(C)C)C(=O)N[C@@H](C)C(=O)N[C@@H](CO)C(=O)N[C@@H](Cc1ccccc1)C(=O)O [KF9] (H-KVKNEVASF-OH)
pIC50 (HLA-B*15:01): 8.25
pIC50 (HLA-A*32:01): 8.54
pIC50 (HLA-A*30:02): 6.80

CC(C)C[C@H](NC(=O)[C@H](CO)NC(=O)[C@H](CS)NC(=O)[C@H](Cc1ccccc1)NC(=O)[C@H](CO)NC(=O)[C@H](CC(C)C)NC(=O)[C@H](Cc1ccccc1)NC(=O)[C@@H](N)CC(C)C)C(=O)N[C@@H](Cc1ccccc1)C(=O)O [reference compound] (H-LFLSFCSLF-OH)
pIC50 (HLA-A*24:02): 6.20
pIC50 (HLA-A*23:01): 7.48

CC[C@H](C)[C@H](NC(=O)[C@H](CC(C)C)NC(=O)[C@H](CC(C)C)NC(=O)CNC(=O)[C@H](CO)NC(=O)[C@H](Cc1ccccc1)NC(=O)[C@H](CCCNC(=N)N)NC(=O)[C@@H](NC(=O)[C@@H](N)CCC(N)=O)[C@@H](C)O)C(=O)N[C@H](C(=O)O)C(C)C (H-QTRFSGLLIV-OH)
pIC50 (HLA-B*15:01): 5.33
pIC50 (HLA-A*30:01): 6.38
pIC50 (HLA-B*27:05): 6.27

CC[C@H](C)[C@H](NC(=O)[C@@H](N)CC(C)C)C(=O)N[C@H](C(=O)N[C@@H](CCCCN)C(=O)N[C@H](C(=O)N[C@H](C(=O)N[C@@H](CC(C)C)C(=O)N[C@@H](CCC(=O)O)C(=O)N[C@@H](Cc1ccccc1)C(=O)O)C(C)C)[C@@H](C)O)C(C)C (H-LIVKTVLEF-OH)
pIC50 (HLA-B*15:01): 9.10
pIC50 (HLA-A*23:01): 6.96

CC[C@H](C)[C@H](NC(=O)[C@H](Cc1ccccc1)NC(=O)[C@H](CCC(=O)O)NC(=O)[C@H](CC(C)C)NC(=O)[C@@H](NC(=O)[C@@H](N)[C@@H](C)O)C(C)C)C(=O)N[C@@H](CC(C)C)C(=O)N[C@@H](CCC(N)=O)C(=O)N[C@@H](CCCCN)C(=O)O (H-TVLEFILQK-OH)
pIC50 (HLA-A*03:01): 7.72
pIC50 (HLA-A*30:01): 6.44

CC[C@H](C)[C@H](NC(=O)[C@H](C)NC(=O)[C@H](CO)NC(=O)[C@H](CC(C)C)NC(=O)[C@H](CCC(N)=O)NC(=O)[C@@H]1CCCN1C(=O)[C@H](Cc1ccc(O)cc1)NC(=O)[C@@H](N)CC(C)C)C(=O)N[C@@H](C)C(=O)N[C@@H](CC(C)C)C(=O)O [LYPQLSAIAL, reference compound] (H-LYPQLSAIAL-OH)
pIC50 (HLA-B*07:02): 6.87

CC[C@H](C)[C@H](NC(=O)[C@H](CC(C)C)NC(=O)[C@@H]1CCCN1C(=O)[C@H](CO)NC(=O)[C@H](Cc1ccc(O)cc1)NC(=O)[C@@H](N)Cc1c[nH]cn1)C(=O)N[C@@H](CC(C)C)C(=O)N[C@@H](C)C(=O)N[C@@H](CC(C)C)C(=O)O [HL9] (H-HYSPLILAL-OH)
pIC50 (HLA-A*24:02): 7.19

CC(C)C[C@H](NC(=O)[C@H](Cc1ccccc1)NC(=O)[C@H](CC(C)C)NC(=O)[C@H](CO)NC(=O)[C@H](CS)NC(=O)[C@H](Cc1ccccc1)NC(=O)[C@H](CO)NC(=O)[C@H](CC(C)C)NC(=O)[C@@H](N)Cc1ccccc1)C(=O)O [reference compound] (H-FLSFCSLFL-OH)
pIC50 (HLA-A*02:01): 8.74
pIC50 (HLA-A*02:03): 7.54
pIC50 (HLA-A*02:06): 6.92

CC(C)C[C@H](NC(=O)[C@H](CCC(N)=O)NC(=O)[C@@H]1CCCN1C(=O)[C@H](Cc1ccc(O)cc1)NC(=O)[C@H](CC(C)C)NC(=O)CNC(=O)[C@H](Cc1c[nH]cn1)NC(=O)[C@H](CCC(=O)O)NC(=O)[C@@H](N)CC(C)C)C(=O)O (H-LEHGLYPQL-OH)
pIC50 (HLA-B*40:01): 7.85
pIC50 (HLA-B*44:02): 8.47

CC[C@H](C)[C@H](NC(=O)[C@H](CC(C)C)NC(=O)[C@@H](N)CC(C)C)C(=O)N[C@H](C(=O)N[C@@H](CCCCN)C(=O)N[C@H](C(=O)N[C@H](C(=O)N[C@@H](CC(C)C)C(=O)O)C(C)C)[C@@H](C)O)C(C)C [reference compound] (H-LLIVKTVL-OH)
pIC50 (HLA-B*08:01): 8.21

RPKVPLRTM
score on the t-SNE T2 axis (Mafa-A063 binding affinity and stability) [1]: scored high

GPRKPIKCW
score on the t-SNE T2 axis (Mafa-A063 binding affinity and stability) [1]: scored high

CC(C)[C@H](NC(=O)[C@H](CCCNC(=N)N)NC(=O)[C@H](C)NC(=O)[C@H](Cc1ccccc1)NC(=O)[C@@H]1CCCN1C(=O)[C@H](C)NC(=O)[C@H](Cc1ccc(O)cc1)NC(=O)[C@H](CCC(=O)O)NC(=O)CN)C(=O)O (H-GEYAPFARV-OH)
pIC50 (HLA-B*40:01): 6.97
pIC50 (HLA-B*44:02): 6.67

CC[C@H](C)[C@H](NC(=O)[C@H](C)NC(=O)[C@H](CO)NC(=O)[C@H](CC(C)C)NC(=O)[C@@H](N)CCC(N)=O)C(=O)N[C@@H](C)C(=O)N[C@@H](CC(C)C)C(=O)NCC(=O)N[C@H](C(=O)O)C(C)C (H-QLSAIALGV-OH)
pIC50 (HLA-A*68:02): 7.96
pIC50 (HLA-A*02:01): 8.41
pIC50 (HLA-A*02:03): 8.36
pIC50 (HLA-A*02:06): 7.92
pIC50 (HLA-A*32:01): 7.09

HPAQTSQW
score on the t-SNE T2 axis (Mafa-A063 binding affinity and stability) [1]: scored high

CC[C@H](C)[C@H](NC(=O)[C@H](C)NC(=O)[C@H](CO)NC(=O)[C@H](CC(C)C)NC(=O)[C@H](CCC(N)=O)NC(=O)[C@@H]1CCCN1C(=O)[C@H](Cc1ccc(O)cc1)NC(=O)[C@H](CC(C)C)NC(=O)CN)C(=O)O (H-GLYPQLSAI-OH)
pIC50 (HLA-A*02:01): 8.23
pIC50 (HLA-A*02:03): 8.85
pIC50 (HLA-A*02:06): 8.16
